Experimental findings from ChEMBL document CHEMBL1201862, “PubChem BioAssay data set” (2004) are described below.

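Growth conditions: 96-well plates. Treatment: test compound, 48 hours, 5 concentrations. Analysis: linear interpolation between bracketing concentrations; unreached endpoints set to highest concentration. At the GI50, growth is halved.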 Activity calls are given as the source filed them. Cut-off read from the data, not from the text of the source: active = GI50 up to about 1.1 µM and inactive = higher.

Among the test systems are OVCAR-3; SW-620; NCI/ADR-RES; UO-31; CCRF-CEM; RPMI-8226; SN12C; HOP-62; MDA-MB-231; DU-145; 786-0; HL-60; SF-295; SNB-19; SF-268; MDA-N; HCT-15; HT-29; NCI-H23; HOP-92.
Test in all cases: inhibition of tumour cell growth, NCI panel, 48 h

Consider `Cc1cc(=O)[nH]c2c1C(=O)c1c(C)cc(=O)n(C)c1C2=O`, for which the GI50 in the assay with OVCAR-3 is 0.0508 µM (active); with SW-620 it was 0.0419 µM (active); with NCI/ADR-RES it was 0.0889 µM (active); in the assay with UO-31, 0.167 µM (active); in the assay on CCRF-CEM it was 0.321 µM (active); with RPMI-8226, 0.33 µM (active). Moreover, the GI50 is 0.074 µM (active) with SN12C; 0.0514 µM (active) in the assay on HOP-62; 0.303 µM (active) with MDA-MB-231; 0.0238 µM (active) in the assay on DU-145; 0.0545 µM (active) in the assay with 786-0; 0.153 µM (active) with HL-60. Moreover, the GI50 with SF-295 is 0.167 µM (active); in the assay with SNB-19, 0.0185 µM (active); with SF-268, 0.129 µM (active); in the assay with MDA-N, 0.0184 µM (active); in the assay on HCT-15, 0.123 µM; with HT-29 it was 0.043 µM (active). Also, in the assay with NCI-H23, the GI50 is 0.0142 µM (active).
In the case of `COc1cc(C[C@@H](C)N)cc(OC)c1`, the GI50 in the assay on OVCAR-3, in the assay with SW-620, in the assay with NCI/ADR-RES, in the assay on UO-31, in the assay on CCRF-CEM and in the assay on RPMI-8226 was > 100 µM (inactive) each time. For the same molecule, the GI50 in the assay on SN12C, in the assay with HOP-62, in the assay with MDA-MB-231, with DU-145, in the assay on 786-0 and in the assay with HL-60 was > 100 µM (inactive) each time. For the same molecule, the GI50 with SF-295 is > 100 µM (inactive); in the assay on SNB-19, > 100 µM (inactive); in the assay on SF-268, > 100 µM (inactive); in the assay on MDA-N, > 100 µM (inactive); in the assay with HCT-15 it was more than 100 µM; in the assay with HT-29 it was > 100 µM (inactive). For the same molecule, the GI50 in the assay on NCI-H23 was > 100 µM (inactive).
For `O=C(Nc1ccc(S(=O)(=O)/N=c2\ncccn2C(=O)C(C(F)(F)F)C(F)(F)F)cc1)C(C(F)(F)F)C(F)(F)F`, the GI50 in the assay on OVCAR-3, in the assay with NCI/ADR-RES, in the assay on CCRF-CEM, with RPMI-8226, with SN12C and in the assay on HOP-62 was > 100 µM (inactive) throughout. Moreover, the GI50 in the assay on MDA-MB-231, with DU-145, in the assay on 786-0, with HL-60, with SF-295 and in the assay with SNB-19 was > 100 µM (inactive) each time. For the same molecule, the GI50 in the assay with SF-268 is > 100 µM (inactive); in the assay on MDA-N, > 100 µM (inactive); in the assay on HCT-15 it was more than 100 µM; in the assay with HT-29, > 100 µM (inactive); with NCI-H23, > 100 µM (inactive).
Turning to `CN(C)/C=C/c1nnc([N+](=O)[O-])s1`, the GI50 in the assay on OVCAR-3 is 2.65 µM (inactive); in the assay with SW-620, 16.8 µM (inactive); with NCI/ADR-RES, 16.5 µM (inactive); in the assay with UO-31, 15.3 µM (inactive); in the assay with RPMI-8226, < 0.01 µM (active); in the assay with SN12C, 18.8 µM (inactive). For the same molecule, the GI50 in the assay with HOP-62 was 22.8 µM (inactive); in the assay on MDA-MB-231, 18.2 µM (inactive); with DU-145, 15.2 µM (inactive); with 786-0, 11.3 µM (inactive); in the assay on SF-295, 13.8 µM (inactive); in the assay with SNB-19, 26.3 µM (inactive). For the same molecule, the GI50 in the assay on SF-268 is 14.6 µM (inactive); with MDA-N it was 4.28 µM (inactive); with HCT-15, 12 µM; with HT-29, 3.57 µM (inactive); with NCI-H23 it was 19.3 µM (inactive).
As for `COc1cc2oc(=O)cc(C)c2c(OC)c1OC`, the GI50 in the assay on OVCAR-3 was > 100 µM (inactive); with SW-620, > 100 µM (inactive); with NCI/ADR-RES it was > 100 µM (inactive); in the assay on UO-31 it was 38.7 µM (inactive); in the assay with CCRF-CEM, > 100 µM (inactive); in the assay with RPMI-8226 it was > 100 µM (inactive). Further, the GI50 in the assay on SN12C, with HOP-62, in the assay on MDA-MB-231, with DU-145, in the assay on 786-0 and in the assay on SF-295 was > 100 µM (inactive) throughout. The GI50 is > 100 µM (inactive) in the assay on SNB-19; > 100 µM (inactive) in the assay with SF-268; > 100 µM (inactive) in the assay on MDA-N; more than 100 µM in the assay on HCT-15; > 100 µM (inactive) with HT-29; > 100 µM (inactive) with NCI-H23.
Turning to `CC1(C)CCC2(C(=O)OC3OC(CO)C(O)C(O)C3O)CCC3(CO)C(=CCC4C5(C)CC(O)C(O)C(C)(C(=O)OC6OC(CO)C(O)C(O)C6O)C5CCC43C)C2C1` (stereo unspecified), the GI50 in the assay on OVCAR-3, in the assay on SW-620, in the assay with NCI/ADR-RES, in the assay with UO-31, in the assay on SN12C and with HOP-62 was > 100 µM (inactive) in each case. Moreover, the GI50 in the assay on MDA-MB-231 was > 100 µM (inactive); in the assay on DU-145, > 100 µM (inactive); with 786-0, > 100 µM (inactive); in the assay on HL-60 it was 39 µM (inactive); in the assay with SF-295, > 100 µM (inactive); in the assay with SNB-19, > 100 µM (inactive). Further, the GI50 was > 100 µM (inactive) in the assay on SF-268; > 100 µM (inactive) with MDA-N; > 100 µM (inactive) in the assay on HOP-92; more than 100 µM in the assay on HCT-15; > 100 µM (inactive) with HT-29; > 100 µM (inactive) with NCI-H23.
For `CC(C)Oc1c(O)c2c3c(oc(=O)n3C=CC2c2ccccc2)c1OC(C)C` (stereo unspecified), the GI50 with OVCAR-3 was 21.5 µM (inactive); in the assay on SW-620, 32 µM (inactive); in the assay on NCI/ADR-RES, 27.5 µM (inactive); in the assay with UO-31 it was 14.2 µM (inactive); in the assay on SN12C, 36.5 µM (inactive); in the assay on HOP-62, 26.7 µM (inactive). Moreover, the GI50 was 30.3 µM (inactive) in the assay with MDA-MB-231; 34 µM (inactive) in the assay with DU-145; 36.1 µM (inactive) with 786-0; 27 µM (inactive) with HL-60; 20.8 µM (inactive) with SF-295; 20.3 µM (inactive) in the assay on SNB-19. Also, the GI50 with MDA-N was 36.3 µM (inactive); in the assay on HOP-92, 30.2 µM (inactive); in the assay with HCT-15 it was 12.8 µM; in the assay on HT-29, 24.2 µM (inactive); in the assay with NCI-H23, 20.2 µM (inactive).
`N/C(=N\c1cccc(Cl)c1)c1ccccc1N`: the GI50 in the assay with OVCAR-3, in the assay with SW-620, in the assay on NCI/ADR-RES, with UO-31, with RPMI-8226 and in the assay with HOP-62 was > 100 µM (inactive) each time. Also, the GI50 with MDA-MB-231, with DU-145, in the assay on 786-0, in the assay on HL-60, in the assay with SF-295 and with SNB-19 was > 100 µM (inactive) in each case. In addition, the GI50 was > 100 µM (inactive) with SF-268; > 100 µM (inactive) with MDA-N; more than 100 µM with HCT-15; > 100 µM (inactive) in the assay with HT-29; > 100 µM (inactive) with NCI-H23.
Regarding `CCn1cc(C(=O)O)c(=O)c2cc(F)c(N3CCN(CN4C(=O)/C(=N\NC(=O)c5ccncc5)c5cc(Cl)ccc54)CC3)cc21`, the GI50 in the assay on OVCAR-3 is 39.1 µM (inactive); in the assay on SW-620, 23.4 µM (inactive); in the assay on NCI/ADR-RES, 79.6 µM (inactive); in the assay on UO-31, 4.83 µM (inactive); in the assay on SN12C, 69.5 µM (inactive); in the assay with HOP-62, 22.9 µM (inactive). The GI50 with MDA-MB-231 was 52.7 µM (inactive); with DU-145, 24 µM (inactive); in the assay on 786-0, 38.6 µM (inactive); in the assay with HL-60, 15.8 µM (inactive); with SF-295, > 100 µM (inactive); with SNB-19, 44.3 µM (inactive). The GI50 in the assay on SF-268 is 61.4 µM (inactive); in the assay with MDA-N it was 50.6 µM (inactive); in the assay with HOP-92, 45.5 µM (inactive); in the assay with HCT-15 it was 31.1 µM; in the assay with HT-29, 32.7 µM (inactive); in the assay on NCI-H23, 59.4 µM (inactive).
As for `COC(=O)c1ccc2c(c1)CC1(C2)Cc2ccc3c(c2C1)CCC3` (stereo unspecified), the GI50 with OVCAR-3 was 80.2 µM (inactive); in the assay with SW-620, 14.4 µM (inactive); with CCRF-CEM, 19.3 µM (inactive); in the assay on RPMI-8226 it was 21.3 µM (inactive); in the assay with SN12C, 18.6 µM (inactive); in the assay with HOP-62, 29.9 µM (inactive). The GI50 was 5.07 µM (inactive) in the assay with MDA-MB-231; 53.6 µM (inactive) in the assay with DU-145; 23.2 µM (inactive) in the assay on 786-0; 14.8 µM (inactive) with HL-60; 24.9 µM (inactive) in the assay on SF-295; 33 µM (inactive) with SNB-19. Besides, the GI50 is 93.8 µM (inactive) with SF-268; 3.63 µM (inactive) in the assay with MDA-N; 0.855 µM (active) in the assay on HOP-92; 20.1 µM in the assay with HCT-15; 17.5 µM (inactive) with HT-29; 57.3 µM (inactive) with NCI-H23.
Regarding `COC(=O)C1=C(C(=O)OC)C2CCC1CC2=O` (stereo unspecified), the GI50 with OVCAR-3 is > 100 µM (inactive); with SW-620, 89.9 µM (inactive); in the assay with NCI/ADR-RES, > 100 µM (inactive); in the assay with UO-31, 55.1 µM (inactive); with CCRF-CEM, 31.3 µM (inactive); in the assay on RPMI-8226 it was > 100 µM (inactive). In addition, the GI50 in the assay on SN12C, in the assay on HOP-62, with MDA-MB-231, in the assay on DU-145, in the assay with 786-0 and in the assay on SF-295 was > 100 µM (inactive) throughout. For the same molecule, the GI50 with SNB-19 is > 100 µM (inactive); with SF-268, > 100 µM (inactive); with MDA-N, > 100 µM (inactive); in the assay with HCT-15, 83.8 µM; with HT-29, > 100 µM (inactive); in the assay with NCI-H23, > 100 µM (inactive).
